Source: ChEMBL document CHEMBL1151963 (J Med Chem, 2009)
Calls of active or inactive are those of the source. The rule behind the calls is not given here.

Experiments:
[1] = Metabolic stability in nude mouse microsomes assessed as half life at 1 uM by HPLC-MS/MS analysis; assay type: ADME, Microsome
[2] = molecular target: T1, Serine/threonine-protein kinase mTOR (Homo sapiens, UniProt P42345); assay: Inhibition of flag-tagged truncated human mTOR (1360-2549) expressed in HEK293 cells by DELFIA assay; assay type: cell-based
LNCaP = assay: Cytotoxicity against human LNCAP cells after 3 days by MTS assay; assay type: functional, cell-based; details: 72 h
[3] = molecular target: Phosphatidylinositol 4,5-bisphosphate 3-kinase catalytic subunit alpha isoform (Homo sapiens, UniProt P42336); assay: Inhibition of PI3Kalpha expressed in Escherichia coli by microtiter plate-based fluorescence polarization assay
Mus musculus [4] = assay: Inhibition of PI3K in BALB/c nu/nu mouse bearing PTEN-null human PC3MM2 xenograft tumor assessed as suppression of AKT phosphorylation at T308 at 50 mg/kg, ip administered as single dose for 4 hrs; assay type: functional, organism-based; design: dose 50 mg/kg
Mus musculus [5] = assay: Inhibition of mTOR complex 1 in BALB/c nu/nu mouse bearing PTEN-null human PC3MM2 xenograft tumor assessed as suppression of S6K phosphorylation at T389 at 50 mg/kg, ip administered as single dose for 6 hrs; assay type: functional, organism-based; design: dose 50 mg/kg
Mus musculus [6] = assay: Inhibition of mTOR complex 2 in BALB/c nu/nu mouse bearing PTEN-null human PC3MM2 xenograft tumor assessed as suppression of P-AKT phosphorylation at S473 at 50 mg/kg, ip administered as single dose for 4 to 6 hrs; assay type: functional, organism-based; design: dose 50 mg/kg
[7] = molecular target: Tyrosine-protein kinase ABL1 (Homo sapiens, UniProt P00519); assay: Inhibition of ABL1 after 1 hr by mobility shift electrophoresis assay
Aurora kinase B = Aurora kinase B (Homo sapiens, UniProt Q96GD4); assay: Inhibition of Aurora B after 1 hr by mobility shift electrophoresis assay
[8] = molecular target: Cyclin-dependent kinase 1/cyclin B1 (Homo sapiens, UniProt P06493); assay: Inhibition of CDK1/cyclinB after 1 hr by mobility shift electrophoresis assay; assay type: protein-complex assay
[9] = molecular target: Cyclin-dependent kinase 2 (Homo sapiens, UniProt P24941); assay: Inhibition of CDK2/cyclinA after 1 hr by mobility shift electrophoresis assay
[10] = molecular target: Serine/threonine-protein kinase Chk1 (Homo sapiens, UniProt O14757); assay: Inhibition of CHK1 after 1 hr by mobility shift electrophoresis assay
[11] = molecular target: Casein kinase I isoform gamma-1 (Homo sapiens, UniProt Q9HCP0); assay: Inhibition of CK1gamma1 after 1 hr by mobility shift electrophoresis assay
[12] = molecular target: Mitogen-activated protein kinase 1 (Homo sapiens, UniProt P28482); assay: Inhibition of ERK2 after 1 hr by mobility shift electrophoresis assay
[13] = molecular target: Tyrosine-protein kinase Fyn (Homo sapiens, UniProt P06241); assay: Inhibition of FYN after 1 hr by mobility shift electrophoresis assay
[14] = molecular target: Mitogen-activated protein kinase kinase kinase kinase 2 (Homo sapiens, UniProt Q12851); assay: Inhibition of GCK after 1 hr by mobility shift electrophoresis assay
[15] = molecular target: Tyrosine-protein kinase HCK (Homo sapiens, UniProt P08631); assay: Inhibition of HCK after 1 hr by mobility shift electrophoresis assay
[16] = molecular target: Inhibitor of nuclear factor kappa-B kinase subunit alpha (Homo sapiens, UniProt O15111); assay: Inhibition of IKKalpha after 1 hr by mobility shift electrophoresis assay
[17] = molecular target: Vascular endothelial growth factor receptor 2 (Homo sapiens, UniProt P35968); assay: Inhibition of VEGFR2 after 1 hr by mobility shift electrophoresis assay
[18] = molecular target: Tyrosine-protein kinase Lyn (Homo sapiens, UniProt P07948); assay: Inhibition of LYN after 1 hr by mobility shift electrophoresis assay
[19] = molecular target: MAP kinase-activated protein kinase 2 (Homo sapiens, UniProt P49137); assay: Inhibition of MK2 after 1 hr by mobility shift electrophoresis assay
[20] = molecular target: Mitogen-activated protein kinase 14 (Homo sapiens, UniProt Q16539); assay: Inhibition of p38alpha after 1 hr by mobility shift electrophoresis assay
[21] = molecular target: Platelet-derived growth factor receptor alpha (Homo sapiens, UniProt P16234); assay: Inhibition of PDGFRalpha after 1 hr by mobility shift electrophoresis assay
[22] = Inhibition of PKA after 1 hr by mobility shift electrophoresis assay
[23] = molecular target: RAC-alpha serine/threonine-protein kinase (Homo sapiens, UniProt P31749); assay: Inhibition of PKBalpha after 1 hr by mobility shift electrophoresis assay
[24] = Antitumor activity against human U87MG cells xenografted in BALB/c nu/nu mouse at 50 mg/kg, ip administered once daily for 5 days measured on day 7 relative to control; assay type: functional, U-87MG ATCC; details: route intraperitoneal
[25] = Antitumor activity against human U87MG cells xenografted in BALB/c nu/nu mouse at 50 mg/kg, ip administered twice daily for 5 days measured on day 7 relative to control; assay type: functional, U-87MG ATCC; details: route intraperitoneal
[26] = molecular target: T1, Serine/threonine-protein kinase mTOR; assay: Inhibition of mTOR complex 1 in human PC3MM2 cells assessed as suppression of S6K phosphorylation at T389 treated for 6 hrs by immunoblotting analysis; assay type: cell-based
[27] = molecular target: T1, Serine/threonine-protein kinase mTOR; assay: Inhibition of mTOR complex 2 in human PC3MM2 cells assessed as suppression of P-AKT phosphorylation at S473 treated for 6 hrs by immunoblotting analysis; assay type: cell-based
[28] = molecular target: T1, Serine/threonine-protein kinase mTOR; assay: Inhibition of mTOR complex 1 in human U87MG cells assessed as suppression of S6K phosphorylation at T389 treated for 6 hrs by immunoblotting analysis; assay type: cell-based; details: U-87MG ATCC
[29] = molecular target: T1, Serine/threonine-protein kinase mTOR; assay: Inhibition of mTOR complex 2 in human U87MG cells assessed as suppression of AKT phosphorylation at S473 treated for 6 hrs by immunoblotting analysis; assay type: cell-based; details: U-87MG ATCC
[30] = molecular target: Phosphatidylinositol 4,5-bisphosphate 3-kinase catalytic subunit gamma isoform (Homo sapiens, UniProt P48736); assay: Inhibition of PI3Kgamma
[31] = molecular target: Rho-associated protein kinase 1 (Homo sapiens, UniProt Q13464); assay: Inhibition of ROCK1 after 1 hr by mobility shift electrophoresis assay
[32] = molecular target: Ribosomal protein S6 kinase alpha-1 (Homo sapiens, UniProt Q15418); assay: Inhibition of RSK1 after 1 hr by mobility shift electrophoresis assay
[33] = molecular target: Proto-oncogene tyrosine-protein kinase Src (Homo sapiens, UniProt P12931); assay: Inhibition of SRC after 1 hr by mobility shift electrophoresis assay
[34] = molecular target: Protein kinase C beta type (Homo sapiens, UniProt P05771); assay: Inhibition of PKCbeta after 1 hr by mobility shift electrophoresis assay
[35] = molecular target: Protein kinase C alpha type (Homo sapiens, UniProt P17252); assay: Inhibition of PKCalpha after 1 hr by mobility shift electrophoresis assay
[36] = Inhibition of PIKK assessed as blockade of VP16-induced phosphorylation of ChK1 at S345 at 3 umol/L
[37] = Inhibition of PIKK assessed as blockade of VP16-induced phosphorylation of p53 at S15 at 3 umol/L
Mus musculus [38] = assay: Inhibition of mTOR complex 1 in BALB/c nu/nu mouse bearing PTEN-null human PC3MM2 xenograft tumor assessed as suppression of S6K phosphorylation at T389 at 50 mg/kg, ip administered as single dose for 4 hrs; assay type: functional, organism-based; design: dose 50 mg/kg
Mus musculus [39] = assay: Inhibition of mTOR complex 2 in BALB/c nu/nu mouse bearing PTEN-null human PC3MM2 xenograft tumor assessed as suppression of AKT phosphorylation at S473 at 50 mg/kg, ip administered as single dose for 4 hrs; assay type: functional, organism-based; design: dose 50 mg/kg
[40] = Aqueous solubility at pH 3; assay type: physicochemical; details: buffer

Sequence of Phosphatidylinositol 4,5-bisphosphate 3-kinase catalytic subunit alpha isoform (P42336 whole entry, canonical isoform): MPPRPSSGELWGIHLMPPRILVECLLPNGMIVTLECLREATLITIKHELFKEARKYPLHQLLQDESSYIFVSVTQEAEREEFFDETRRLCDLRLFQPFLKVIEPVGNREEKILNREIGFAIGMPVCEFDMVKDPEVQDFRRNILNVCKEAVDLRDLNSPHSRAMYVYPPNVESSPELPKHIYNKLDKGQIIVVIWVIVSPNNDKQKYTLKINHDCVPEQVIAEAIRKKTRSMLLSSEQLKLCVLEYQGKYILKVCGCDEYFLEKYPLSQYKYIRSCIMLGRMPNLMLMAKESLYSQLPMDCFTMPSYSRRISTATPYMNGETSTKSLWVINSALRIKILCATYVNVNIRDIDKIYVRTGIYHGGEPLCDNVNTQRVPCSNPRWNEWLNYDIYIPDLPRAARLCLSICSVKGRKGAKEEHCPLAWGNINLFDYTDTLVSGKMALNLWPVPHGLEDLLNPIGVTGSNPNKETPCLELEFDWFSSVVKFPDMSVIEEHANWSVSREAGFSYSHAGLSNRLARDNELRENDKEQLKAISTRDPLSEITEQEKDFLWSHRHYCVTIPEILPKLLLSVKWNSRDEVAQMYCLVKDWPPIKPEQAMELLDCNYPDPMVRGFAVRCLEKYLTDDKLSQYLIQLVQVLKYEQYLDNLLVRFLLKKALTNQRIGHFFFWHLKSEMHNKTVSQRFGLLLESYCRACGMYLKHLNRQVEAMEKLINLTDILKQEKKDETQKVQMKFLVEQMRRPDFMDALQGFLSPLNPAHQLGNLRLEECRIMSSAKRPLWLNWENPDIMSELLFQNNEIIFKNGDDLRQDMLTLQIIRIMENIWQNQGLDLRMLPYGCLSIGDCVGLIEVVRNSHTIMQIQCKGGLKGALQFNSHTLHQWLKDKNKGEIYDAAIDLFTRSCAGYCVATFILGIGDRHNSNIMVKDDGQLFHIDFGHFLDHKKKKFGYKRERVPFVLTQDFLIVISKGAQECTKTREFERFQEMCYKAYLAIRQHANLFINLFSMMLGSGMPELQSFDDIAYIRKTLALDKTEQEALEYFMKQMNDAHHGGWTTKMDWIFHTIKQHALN
Sequence of MAP kinase-activated protein kinase 2 (P49137 whole entry): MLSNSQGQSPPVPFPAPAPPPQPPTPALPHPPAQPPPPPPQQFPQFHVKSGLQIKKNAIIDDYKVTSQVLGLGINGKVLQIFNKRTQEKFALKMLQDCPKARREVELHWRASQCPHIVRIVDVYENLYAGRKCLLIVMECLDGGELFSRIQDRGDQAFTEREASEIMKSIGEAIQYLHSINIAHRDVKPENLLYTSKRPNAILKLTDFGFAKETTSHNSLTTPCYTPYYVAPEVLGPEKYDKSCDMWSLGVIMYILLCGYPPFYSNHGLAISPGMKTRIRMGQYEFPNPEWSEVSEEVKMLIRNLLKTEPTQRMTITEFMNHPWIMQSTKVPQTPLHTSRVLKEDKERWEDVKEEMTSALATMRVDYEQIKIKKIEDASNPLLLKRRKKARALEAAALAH
Sequence of Inhibitor of nuclear factor kappa-B kinase subunit alpha (O15111 whole entry): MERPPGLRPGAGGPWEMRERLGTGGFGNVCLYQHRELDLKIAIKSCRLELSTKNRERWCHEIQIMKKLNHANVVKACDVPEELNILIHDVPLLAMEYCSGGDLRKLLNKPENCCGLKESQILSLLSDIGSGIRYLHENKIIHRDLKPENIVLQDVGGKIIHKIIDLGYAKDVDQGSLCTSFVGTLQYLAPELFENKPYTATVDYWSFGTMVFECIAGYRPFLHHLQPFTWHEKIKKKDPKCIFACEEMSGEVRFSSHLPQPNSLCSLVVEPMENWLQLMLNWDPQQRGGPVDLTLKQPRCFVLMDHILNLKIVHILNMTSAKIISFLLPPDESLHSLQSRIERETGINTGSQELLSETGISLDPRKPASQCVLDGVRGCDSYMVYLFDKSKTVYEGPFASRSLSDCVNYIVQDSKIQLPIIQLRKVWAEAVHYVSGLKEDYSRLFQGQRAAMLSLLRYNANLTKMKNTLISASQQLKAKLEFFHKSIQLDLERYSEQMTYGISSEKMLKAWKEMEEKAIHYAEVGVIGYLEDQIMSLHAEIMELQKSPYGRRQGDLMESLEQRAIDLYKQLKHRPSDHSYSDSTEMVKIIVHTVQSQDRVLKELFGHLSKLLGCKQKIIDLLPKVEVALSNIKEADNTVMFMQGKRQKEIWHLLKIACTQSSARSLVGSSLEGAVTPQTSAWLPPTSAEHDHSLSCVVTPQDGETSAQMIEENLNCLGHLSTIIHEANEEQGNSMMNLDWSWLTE
Sequence of Cyclin-dependent kinase 1/cyclin B1 (P06493 whole entry): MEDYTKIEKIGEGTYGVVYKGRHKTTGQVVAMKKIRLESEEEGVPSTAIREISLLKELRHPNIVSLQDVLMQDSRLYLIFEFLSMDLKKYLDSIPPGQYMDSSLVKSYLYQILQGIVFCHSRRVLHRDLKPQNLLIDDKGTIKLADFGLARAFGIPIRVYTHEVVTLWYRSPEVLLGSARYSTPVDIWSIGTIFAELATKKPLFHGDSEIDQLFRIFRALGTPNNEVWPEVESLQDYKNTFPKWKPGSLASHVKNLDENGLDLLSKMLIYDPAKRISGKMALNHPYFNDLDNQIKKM
Sequence of Cyclin-dependent kinase 1/cyclin B1 (P14635 whole entry, further chain): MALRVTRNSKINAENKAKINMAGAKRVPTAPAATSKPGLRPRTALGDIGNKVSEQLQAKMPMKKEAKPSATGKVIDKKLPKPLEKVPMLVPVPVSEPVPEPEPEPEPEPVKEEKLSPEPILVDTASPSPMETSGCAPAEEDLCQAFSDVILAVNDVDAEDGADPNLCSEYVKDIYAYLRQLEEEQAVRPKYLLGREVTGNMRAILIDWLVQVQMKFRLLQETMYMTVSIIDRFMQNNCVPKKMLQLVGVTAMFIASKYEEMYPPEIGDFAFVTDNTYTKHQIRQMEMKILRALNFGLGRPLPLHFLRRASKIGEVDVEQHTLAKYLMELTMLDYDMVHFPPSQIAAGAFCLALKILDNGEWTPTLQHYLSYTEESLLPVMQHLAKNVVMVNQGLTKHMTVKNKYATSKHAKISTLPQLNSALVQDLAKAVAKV
Sequence of Rho-associated protein kinase 1 (Q13464 whole entry): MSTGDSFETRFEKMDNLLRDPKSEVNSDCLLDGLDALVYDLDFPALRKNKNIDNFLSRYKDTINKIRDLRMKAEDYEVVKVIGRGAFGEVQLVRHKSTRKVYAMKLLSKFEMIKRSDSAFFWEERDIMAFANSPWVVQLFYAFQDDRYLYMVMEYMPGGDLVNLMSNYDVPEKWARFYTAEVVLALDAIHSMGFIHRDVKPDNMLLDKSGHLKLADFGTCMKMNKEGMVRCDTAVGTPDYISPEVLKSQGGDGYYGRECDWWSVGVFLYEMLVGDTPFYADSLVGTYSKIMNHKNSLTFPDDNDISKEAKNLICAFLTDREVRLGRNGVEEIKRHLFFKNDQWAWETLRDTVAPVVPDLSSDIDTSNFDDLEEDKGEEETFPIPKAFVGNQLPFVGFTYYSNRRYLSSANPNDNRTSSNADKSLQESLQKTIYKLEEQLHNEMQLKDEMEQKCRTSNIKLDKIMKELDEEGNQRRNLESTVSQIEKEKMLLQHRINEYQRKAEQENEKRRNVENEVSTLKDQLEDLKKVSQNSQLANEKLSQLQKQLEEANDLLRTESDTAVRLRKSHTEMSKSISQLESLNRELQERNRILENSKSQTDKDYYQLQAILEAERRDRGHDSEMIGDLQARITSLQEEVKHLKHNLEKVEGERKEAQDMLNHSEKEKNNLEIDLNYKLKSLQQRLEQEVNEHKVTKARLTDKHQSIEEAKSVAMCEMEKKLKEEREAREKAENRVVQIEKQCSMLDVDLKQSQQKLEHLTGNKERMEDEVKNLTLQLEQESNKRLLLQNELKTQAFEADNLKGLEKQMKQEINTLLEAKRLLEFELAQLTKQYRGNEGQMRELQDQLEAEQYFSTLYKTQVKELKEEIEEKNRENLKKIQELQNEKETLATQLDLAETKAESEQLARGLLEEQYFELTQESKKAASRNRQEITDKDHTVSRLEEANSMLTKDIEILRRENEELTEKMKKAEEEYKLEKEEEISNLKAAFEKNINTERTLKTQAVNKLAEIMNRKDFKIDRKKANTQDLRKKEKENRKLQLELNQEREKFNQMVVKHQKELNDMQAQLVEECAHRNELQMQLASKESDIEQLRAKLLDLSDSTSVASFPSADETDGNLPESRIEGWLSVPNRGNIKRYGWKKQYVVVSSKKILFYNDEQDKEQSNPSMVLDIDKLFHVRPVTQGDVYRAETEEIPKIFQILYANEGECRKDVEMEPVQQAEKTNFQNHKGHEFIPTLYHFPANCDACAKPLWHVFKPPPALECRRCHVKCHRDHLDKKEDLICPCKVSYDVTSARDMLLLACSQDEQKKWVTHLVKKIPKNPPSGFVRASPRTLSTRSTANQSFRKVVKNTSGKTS
Sequence of Ribosomal protein S6 kinase alpha-1 (Q15418 whole entry): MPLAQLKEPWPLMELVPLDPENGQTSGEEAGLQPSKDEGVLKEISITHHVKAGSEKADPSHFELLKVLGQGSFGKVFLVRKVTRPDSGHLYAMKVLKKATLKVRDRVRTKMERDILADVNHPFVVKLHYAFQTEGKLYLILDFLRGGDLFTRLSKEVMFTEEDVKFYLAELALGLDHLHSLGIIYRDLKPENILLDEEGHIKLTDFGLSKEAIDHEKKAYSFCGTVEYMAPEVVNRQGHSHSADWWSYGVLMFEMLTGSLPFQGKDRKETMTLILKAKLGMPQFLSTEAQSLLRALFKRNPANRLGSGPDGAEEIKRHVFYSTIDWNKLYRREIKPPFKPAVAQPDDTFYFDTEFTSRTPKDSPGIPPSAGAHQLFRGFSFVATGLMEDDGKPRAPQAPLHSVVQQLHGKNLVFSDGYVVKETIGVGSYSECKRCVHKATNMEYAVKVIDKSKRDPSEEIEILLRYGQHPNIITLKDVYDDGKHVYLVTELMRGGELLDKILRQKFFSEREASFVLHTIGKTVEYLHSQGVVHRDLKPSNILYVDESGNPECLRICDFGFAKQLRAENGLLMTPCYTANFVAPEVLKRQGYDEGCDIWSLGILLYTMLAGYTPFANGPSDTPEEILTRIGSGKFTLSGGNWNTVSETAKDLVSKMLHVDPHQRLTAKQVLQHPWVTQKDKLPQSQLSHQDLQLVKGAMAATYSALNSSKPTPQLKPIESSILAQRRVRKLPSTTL

CNC(=O)Nc1ccc(-c2nc(N3CCOCC3)c3cnn(C4CCN(Cc5cccnc5)CC4)c3n2)cc1
half-life at 1 µM [1]: 12 min

CC(=O)Nc1ccc(-c2nc(N3CCOCC3)c3cnn(C4CCN(Cc5cccnc5)CC4)c3n2)cc1
IC50 [2]: 7 nM
IC50 (LNCaP): 66 nM
half-life at 1 µM [1]: 12 min

CNC(=O)Nc1ccc(-c2nc(N3CCOCC3)c3cnn(C4CCN(C(=O)N(C)C)CC4)c3n2)cc1
IC50 [2]: 1.1 nM
IC50 (LNCaP): 197 nM
half-life at 1 µM [1]: > 30 min

COC(=O)Nc1ccc(-c2nc(N3CCOCC3)c3cnn(C4CCN(Cc5cccnc5)CC4)c3n2)cc1
half-life at 1 µM [1]: 14 min

CNC(=O)Nc1ccc(-c2nc(N3CCOCC3)c3cnn(C4CCN(C)CC4)c3n2)cc1
IC50 [2]: 22 nM
IC50 (LNCaP): 733 nM
half-life at 1 µM [1]: 2 min

COC(=O)N1CCC(n2ncc3c(N4CCOCC4)nc(-c4ccc(NC(=O)Nc5ccc(CO)cc5)cc4)nc32)CC1
IC50 ([2]; hek293): 0.08 nM
IC50 [3]: 6 nM
IC50 (LNCaP): < 1 nM
half-life at 1 µM [1]: 13 min

CNC(=O)Nc1ccc(-c2nc(N3CCOCC3)c3cnn(C4CCN(Cc5ccccc5)CC4)c3n2)cc1
half-life at 1 µM [1]: 3 min

CC(=O)Nc1cccc(-c2nc(N3CCOCC3)c3cnn(C4CCN(Cc5ccccc5)CC4)c3n2)c1
IC50 [2]: 2450 nM

COC(=O)N1CCC(n2ncc3c(N4CCOCC4)nc(-c4ccc(NC(=O)Nc5ccncc5)cc4)nc32)CC1
IC50 ([2]; hek293): 0.3 nM
IC50 [3]: 18 nM
IC50 (LNCaP): 60 nM
half-life at 1 µM [1]: 9 min

CCOC(=O)Nc1ccc(-c2nc(N3CCOCC3)c3cnn(C4CCN(Cc5ccccc5)CC4)c3n2)cc1
IC50 [2]: 46 nM
IC50 [3]: 631 nM
IC50 (LNCaP): 3400 nM

Oc1cccc(-c2nc(N3CCOCC3)c3cnn(C4CCN(Cc5cccnc5)CC4)c3n2)c1
IC50 [2]: 9.6 nM
IC50 (LNCaP): 53 nM
half-life at 1 µM [1]: 5 min

CNC(=O)Nc1ccc(-c2nc(N3CCOCC3)c3cnn(C4CCN(C(C)=O)CC4)c3n2)cc1
IC50 ([2]; hek293): 2.1 nM
IC50 (LNCaP): 817 nM
half-life at 1 µM [1]: 27 min

COC(=O)N1CCC(n2ncc3c(N4CCOCC4)nc(-c4ccc(NC(=O)OCCO)cc4)nc32)CC1
IC50 [2]: 1 nM
IC50 (LNCaP): 28 nM
half-life at 1 µM [1]: > 30 min

CNC(=O)Nc1ccc(-c2nc(N3CCOCC3)c3cnn(C4CCNCC4)c3n2)cc1
IC50 [2]: 1.4 nM
IC50 (LNCaP): 1370 nM
half-life at 1 µM [1]: > 30 min

COC(=O)Nc1ccc(-c2nc(N3CCOCC3)c3cnn(C4CCN(C(=O)OC)CC4)c3n2)cc1
IC50 [2]: 4.3 nM
IC50 [3]: 1030 nM
IC50 (LNCaP): 355 nM
half-life at 1 µM [1]: > 30 min
Activity (Mus musculus [4]): inactive
Activity (Mus musculus [5]): Active
Activity (Mus musculus [6]): Active
IC50 [7]: > 50000 nM
IC50 (Aurora kinase B): > 50000 nM
IC50 [8]: > 50000 nM
IC50 [9]: > 50000 nM
IC50 [10]: > 50000 nM
IC50 [11]: > 50000 nM
IC50 [12]: > 50000 nM
IC50 [13]: > 50000 nM
IC50 [14]: > 50000 nM
IC50 [15]: > 50000 nM
IC50 [16]: > 50000 nM
IC50 [17]: > 50000 nM
IC50 [18]: > 50000 nM
IC50 [19]: > 50000 nM
IC50 [20]: > 50000 nM
IC50 [21]: > 50000 nM
IC50 [22]: > 50000 nM
IC50 [23]: > 50000 nM
T/C [24]: 0.62
T/C [25]: 0.14
Activity [26]: Dose-dependent effect
Activity [27]: Dose-dependent effect
Activity [28]: Dose-dependent effect
Activity [29]: Dose-dependent effect
IC50 [30]: 6320 nM
IC50 [31]: > 50000 nM
IC50 [32]: > 50000 nM
IC50 [33]: > 50000 nM
IC50 [34]: > 50000 nM
IC50 [35]: > 50000 nM
Activity [36]: inactive
Activity [37]: inactive

CNC(=O)Nc1ccc(-c2nc(N3CCOCC3)c3cnn(C4CCN(C(=O)NC)CC4)c3n2)cc1
IC50 ([2]; hek293): 2 nM
IC50 (LNCaP): 2570 nM

CNC(=O)Nc1ccc(-c2nc(N3CCOCC3)c3cnn(C4CCN(C(=O)OC)CC4)c3n2)cc1
Activity (Mus musculus [38]): Active
Activity (Mus musculus [39]): Active
Activity (Mus musculus [4]): inactive
T/C [24]: 0.57

O=C(Nc1ccc(-c2nc(N3CCOCC3)c3cnn(C4CCN(Cc5cccnc5)CC4)c3n2)cc1)OCCO
half-life at 1 µM [1]: 6 min

CCNC(=O)Nc1ccc(-c2nc(N3CCOCC3)c3cnn(C4CCN(C(=O)OC)CC4)c3n2)cc1
IC50 [2]: 0.32 nM
IC50 (LNCaP): 55 nM
half-life at 1 µM [1]: > 30 min

COC(=O)N1CCC(n2ncc3c(N4CCOCC4)nc(-c4ccc(NC(=O)Nc5ccc(N6CCN(C)CC6)cc5)cc4)nc32)CC1
solubility [40]: > 100 µg/mL

O=C(Nc1ccncc1)Nc1ccc(-c2nc(N3CCOCC3)c3cnn(C4CCN(C(=O)c5cccnc5)CC4)c3n2)cc1
IC50 [2]: 0.83 nM
IC50 [3]: 548 nM
IC50 (LNCaP): 150 nM
half-life at 1 µM [1]: 22 min

COC(=O)N1CCC(n2ncc3c(N4CCOCC4)nc(-c4ccc(NC(=O)Nc5cccnc5)cc4)nc32)CC1
IC50 [2]: 0.2 nM
IC50 [3]: 35 nM
IC50 (LNCaP): 31 nM
half-life at 1 µM [1]: 24 min
